The source of these data is patent US12202829B2, “Heterocyclic compound” (FIMECS, Inc., priority 2018, dated 2025).

In the assay the target is T1, human XIAP_BIR3 domain purified protein (Homo sapiens, UniProt P98170).
T1 construct: purchased R & D
In words: XIAP binding inhibitory activity, HTRF method with b-Smac ligand. The following applies: for inhibition at 3 µM: test compound 3 μM, first symbol of the cell, read-out: XIAP binding inhibition rate when the concentration of the test compound is 3 μM; for IC50: second symbol of the cell, read-out: XIAP binding 50% inhibitory concentration (IC50 value). The procedure:
Human XIAP binding inhibitory activity were measured by the Homogeneous Time Resolved Fluorescence (HTRF) method with using commercially available human XIAP_BIR3 domain purified protein (R & D) and as a ligand a Smac N-terminal peptide (AVPIAQK (SEQ ID NO: 1)) (hereinafter referred to as “b-Smac”; Peptide Research Laboratories, Inc.) biotinylated at the C-terminus according to a conventional method.
The HTRF method will be described in detail below. A test compound diluted with a reaction buffer was added to a 384-well white shallow bottom plate (Greiner 784076) at 1 μL/well and flash centrifuged for 30 seconds. Subsequently, human XIAP_BIR3 domain purified protein was diluted with the reaction buffer (25 mM HEPES Buffer containing 100 mM NaCl, 0.1% BSA, and 0.1% triton X-100, pH 7.5) to obtain a 90 nM sample diluent, and the resultant sample diluent was added to the above-mentioned white superficial plate at 4.5 μL/well and flash centrifuged for 30 seconds. Subsequently, b-Smac diluted to 90 nM with the reaction buffer was added to the above-mentioned white superficial plat at 4.5 μL/well and flash centrifuged for 30 seconds. A mixed solution of Anti-6 HIS-Cryptate (Eu3+Cryptate-conjugated mouse monoclonal antibody anti-6 Histidine; cisbio) and Streptavidin-XL^ent! (Highgrade XL665-conjugated streptavidin; cisbio) both diluted 100-fold with HTRF detection buffer (cisbio) at a volume ratio of 1:1 was added to the above white superficial plate at 10 μL/well. After flash centrifuging the white shallow bottom plate for 30 seconds, the white shallow bottom plate was left at room temperature for 4 hours or more in the dark. The white superficial plate after being left was subjected to fluorescence intensity measurement (excitation wavelength: 320 nm, fluorescence wavelength: 665 nm and 615 nm) by EnVision (Perkin Elmer).
The binding inhibition rate (%) was calculated based on the HTRF ratio in the presence of the test compound to the HTRF ratio in the absence of the test compound (fluorescence intensity at 665 nm/fluorescence intensity at 615 nm).

Each structure is given as a SMILES string. Counter-ions that a name gives are not always drawn.

T1 sequence (P98170 252-356 limits assumed): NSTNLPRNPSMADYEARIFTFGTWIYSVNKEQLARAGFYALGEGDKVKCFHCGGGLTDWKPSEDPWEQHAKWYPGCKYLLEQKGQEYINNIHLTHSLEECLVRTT

As to `CN[C@@H](C)C(=O)N[C@H](C(=O)N1CCN(C(=O)c2cc3cccc(C)c3n2C)CC1)C1CCCCC1` [Example 16, (S)-N-((S)-1-cyclohexyl-2-(4-(1,7-dimethyl-1H-indole-2-carbonyl)piperazin-1-yl)-2-oxoethyl)-2-(methylamino)propanamide], the inhibition at 3 µM was 50 to 75%. Take `CN[C@@H](C)C(=O)N[C@H](C(=O)N1CCN(C(=O)c2cc(OCCOC)nn2C)CC1)C1CCCCC1` [Example 8, (S)-N-((S)-1-cyclohexyl-2-(4-(3-(2-methoxyethoxy)-1-methyl-1H-pyrazole-5-carbonyl)piperazin-1-yl)-2-oxoethyl)-2-(methylamino)propanamide]: the inhibition at 3 µM was more than 25%. For the compound `CN[C@@H](C)C(=O)N[C@H](C(=O)N1CCN(C(=O)c2c(C)c3ccccc3n2CCOC)CC1)C1CCCCC1` [Example 51, (S)—N—((S)-1-Cyclohexyl-2-(4-(1-(2-methoxyethyl)-3-methyl-1H-indole-2-carbonyl)piperazin-1-yl)-2-oxoethyl)-2-(methylamino)propanamide], the IC50 was in the range of 3 to 30 µM.

For `CN[C@@H](C)C(=O)N[C@H](C(=O)N1CCN(C(=O)c2c(C(=O)NCC(=O)OC)c3ccc(OC)cc3n2C)CC1)C1CCCCC1` [Example 27, Methyl (2-(4-((S)-2-cyclohexyl-2-((S)-2-(methylamino)propanamido)acetyl)piperazine-1-carbonyl)-6-methoxy-1-methyl-1H-indole-3-carbonyl)glycinate Hydrochloride], the inhibition at 3 µM was more than 75%. Consider `CN[C@@H](C)C(=O)N[C@H](C(=O)N1CCN(C(=O)c2ccn3nccc3c2C)CC1)C1CCCCC1` [Example 4, (S)-N-((S)-1-cyclohexyl-2-(4-(4-methylpyrazolo[1,5-a]pyridine-5-carbonyl)piperazin-1-yl)-2-oxoethyl)-2-(methylamino)propanamide], for which the inhibition at 3 µM fell in the range of 50 to 75%.

On to `CN[C@@H](C)C(=O)N[C@H](C(=O)N1CCN(C(=O)c2cc3ccc(OC)cc3n2C)CC1)C1CCC(F)(F)CC1` [Example 42, (S)—N—((S)-1-(4,4-Difluorocyclohexyl)-2-(4-(6-methoxy-1-methyl-1H-indole-2-carbonyl)piperazin-1-yl)-2-oxoethyl)-2-(methylamino)propanamide Hydrochloride], for which the inhibition at 3 µM was more than 75%. Turning to `CN[C@@H](C)C(=O)N[C@H](C(=O)N1CCN(C(=O)c2cc3cc(F)c(OC)cc3n2C)C[C@H]1C)C1CCCCC1` [Example 57, (S)—N—[(S)-1-Cyclohexyl-2-[(R)-4-[(5-fluoro-6-methoxy-1-methyl-1H-indole-2carbonyl]-2-methylpiperazin-1-yl]-2-oxoethyl]-2-(methylamino)propanamide trifluoroacetate], the IC50 was in the range of 0.3 to 3 µM. On to `CN[C@@H](C)C(=O)N[C@H](C(=O)N1CCN(C(=O)c2cc(C3CC3)nn2C)CC1)C1CCCCC1` [Example 9, (S)-N-((S)-1-cyclohexyl-2-(4-(3-cyclopropyl-1-methyl-1H-pyrazole-5-carbonyl)piperazin-1-yl)-2-oxoethyl)-2-(methylamino)propanamide], for which the inhibition at 3 µM is more than 25%.

Consider `CN[C@@H](C)C(=O)N[C@H](C(=O)N1CCN(C(=O)c2ccc3c(c2)cc(C)n3CCOCCOCCOCCO)CC1)C1CCCCC1` [Example 70, (S)—N—((S)-1-Cyclohexyl-2-(4-(1-(2-(2-(2-(2-hydroxyethoxy)ethoxy)ethoxy)ethyl)-2-methyl-1H-indole-5-carbonyl)piperazin-1-yl)-2-oxoethyl)-2-(methylamino)propanamide], for which the IC50 fell in the range of 0.3 to 3 µM. Take `CN[C@@H](C)C(=O)N[C@H](C(=O)N1CCN(C(=O)c2cc3c(OCCOCCOCCOCc4ccccc4)c(F)c(F)cc3n2C)CC1)C1CCCCC1` [Example 66, (S)—N—((S)-2-(4-(4-(2-(2-(2-(Benzyloxy)ethoxy)ethoxy)ethoxy)-5,6-difluoro-1-methyl-1H-indole-2-carbonyl)piperazin-1-yl)-1-cyclohexyl-2-oxoethyl)-2-(methylamino)propanamide]: the IC50 lay in the range of 3 to 30 µM. As for `CN[C@@H](C)C(=O)N[C@H](C(=O)N1CCN(C(=O)c2cc3cccnc3n2C)CC1)C1CCCCC1` [Example 13, (S)-N-((S)-1-cyclohexyl-2-(4-(1-methyl-1H-pyrrolo[2,3-b]pyridine-2-carbonyl)piperazin-1-yl)-2-oxoethyl)-2-(methylamino)propanamide], the inhibition at 3 µM is more than 25%.

Turning to `CN[C@@H](C)C(=O)N[C@H](C(=O)N1CCN(C(=O)c2c(C(=O)NCCOCCOCCNC(=O)OCC3c4ccccc4-c4ccccc43)c3ccc(OC)cc3n2C)CC1)C1CCCCC1` [Example 38, (9H-Fluoren-9-yl)methyl (2-(2-(2-(2-(4-((S)-2-cyclohexyl-2-((S)-2-(methylamino)propanamido)acetyl)piperazine-1-carbonyl)-6-methoxy-1-methyl-1H-indole-3-carboxamido)ethoxy)ethoxy)ethyl)carbamate Hydrochloride], the inhibition at 3 µM is more than 75%. `CN[C@@H](C)C(=O)N[C@H](C(=O)N1CCN(C(=O)c2c(C(=O)NCCOCCOCCOCCN3CCN(c4cc(Nc5ncc(C(=O)Nc6c(C)cccc6Cl)s5)nc(C)n4)CC3)c3cc(F)c(F)cc3n2C)CC1)C1CCCCC1` [Example 82, N-(2-Chloro-6-methylphenyl)-2-((6-(4-(1-(2-(4-((S)-2-cyclohexyl-2-((S)-2-(methylamino)propanamido)acetyl)piperazine-1-carbonyl)-5,6-difluoro-1-methyl-1H-indol-3-yl)-1-oxo-5,8,11-trioxa-2-azatridecan-13-yl)piperazin-1-yl)-2-methylpyrimidin-4-yl)amino)thiazole-5-carboxamide Trifluoroacetate]: the IC50 lay in the range of 0.3 to 3 µM. As to `CN[C@@H](C)C(=O)N[C@H](C(=O)N1CCN(C(=O)c2c(C(=O)NCCOCCOCCOCCOc3ccc(NC(=O)C[C@@H]4N=C(c5ccc(Cl)cc5)c5c(sc(C)c5C)-n5c(C)nnc54)cc3)c3cc(F)c(F)cc3n2C)CC1)C1CCCCC1` [Example 79, N-(2-(2-(2-(2-(4-(2-((S)-4-(4-chlorophenyl)-2,3,9-trimethyl-6H-thieno[3,2-f][1,2,4]triazolo[4,3-a][1,4]diazepin-6-yl)acetamido)phenoxy)ethoxy)ethoxy)ethoxy)ethyl)-2-(4-((S)-2-cyclohexyl-2-((S)-2-(methylamino)propanamido)acetyl)piperazine-1-carbonyl)-5,6-difluoro-1-methyl-1H-indole-3-carboxamide], the IC50 lay in the range of 0.3 to 3 µM. `CN[C@@H](C)C(=O)N[C@H](C(=O)N1CCN(C(=O)c2c(/C=C/C(=O)OC)c3cc(F)ccc3n2C)CC1)C1CCCCC1` [Example 43, Methyl (E)-3-(2-(4-((S)-2-cyclohexyl-2-((S)-2-(methylamino)propanamido)acetyl)piperazine-1-carbonyl)-5-fluoro-1-methyl-1H-indol-3-yl)acrylate Hydrochloride]: the inhibition at 3 µM is more than 75%.

`CN[C@@H](C)C(=O)N[C@H](C(=O)N1CCN(C(=O)c2cc3ccc(F)cc3n2C)CC1)C1CCCCC1` [Example 14, (S)-N-((S)-1-cyclohexyl-2-(4-(6-fluoro-1-methyl-1H-indole-2-carbonyl)piperazin-1-yl)-2-oxoethyl)-2-(methylamino)propanamide]: the inhibition at 3 µM lay in the range of 50 to 75%. `COc1ccc2cc(C(=O)N3CCN(C(=O)CN4C[C@@H](C)NC[C@@H]4CO)CC3)n(C)c2c1` [Example 39, 2-((2R,5R)-2-(Hydroxymethyl)-5-methylpiperazin-1-yl)-1-(4-(6-methoxy-1-methyl-1H-indole-2-carbonyl)piperazin-1-yl)ethan-1-one hydrochloride]: the inhibition at 3 µM lay within 50 to 75%. On to `CN[C@@H](C)C(=O)N[C@H](C(=O)N1CCN(C(=O)c2c(C(=O)N3CCC[C@@H]3COC)c3ccc(OC)cc3n2C)CC1)C1CCCCC1` [Example 30, (S)—N—((S)-1-Cyclohexyl-2-(4-(6-methoxy-3-((R)-2-(methoxymethyl)pyrrolidine-1-carbonyl)-1-methyl-1H-indole-2-carbonyl)piperazin-1-yl)-2-oxoethyl)-2-(methylamino)propanamide Hydrochloride], for which the inhibition at 3 µM lay within 50 to 75%. `CN[C@@H](C)C(=O)N[C@H](C(=O)N1CCN(C(=O)c2cc3cc(F)c(F)cc3n2CCOC)CC1)C1CCCCC1` [Example 54, (S)—N—((S)-1-Cyclohexyl-2-(4-(5,6-difluoro-1-(2-methoxyethyl)-1H-indole-2-carbonyl)piperazin-1-yl)-2-oxoethyl)-2-(methylamino)propanamide]: the IC50 was 3 to 30 µM. `CN[C@@H](C)C(=O)N[C@H](C(=O)N1CCN(C(=O)c2cc3cc(F)c(F)cc3n2CCOCCO)CC1)C1CCCCC1` [Example 45, (S)—N—((S)-1-Cyclohexyl-2-(4-(5,6-difluoro-1-(2-(2-hydroxyethoxy)ethyl)-1H-indole-2-carbonyl)piperazin-1-yl)-2-oxoethyl)-2-(methylamino)propanamide]: the IC50 fell in the range of 3 to 30 µM.
